Source: ChEMBL document CHEMBL5137114, “Discovery of IHMT-MST1-58 as a Novel, Potent, and Selective MST1 Inhibitor for the Treatment of Type 1/2 Diabetes” (J Med Chem, 2022)

Columns and labels:
[1] = molecular target: T1, Serine/threonine-protein kinase 4 (Homo sapiens, UniProt Q13043); experiment: Inhibition of recombinant full length N-terminal GST -tagged human MST1 expressed in baculovirus infected Sf9 insect cells using KKSRGDYMTMQIG as substrate incubated for 1 hr in presence of ATP by ADP-Glo luminescent assay
T1 sequence (Q13043 whole entry): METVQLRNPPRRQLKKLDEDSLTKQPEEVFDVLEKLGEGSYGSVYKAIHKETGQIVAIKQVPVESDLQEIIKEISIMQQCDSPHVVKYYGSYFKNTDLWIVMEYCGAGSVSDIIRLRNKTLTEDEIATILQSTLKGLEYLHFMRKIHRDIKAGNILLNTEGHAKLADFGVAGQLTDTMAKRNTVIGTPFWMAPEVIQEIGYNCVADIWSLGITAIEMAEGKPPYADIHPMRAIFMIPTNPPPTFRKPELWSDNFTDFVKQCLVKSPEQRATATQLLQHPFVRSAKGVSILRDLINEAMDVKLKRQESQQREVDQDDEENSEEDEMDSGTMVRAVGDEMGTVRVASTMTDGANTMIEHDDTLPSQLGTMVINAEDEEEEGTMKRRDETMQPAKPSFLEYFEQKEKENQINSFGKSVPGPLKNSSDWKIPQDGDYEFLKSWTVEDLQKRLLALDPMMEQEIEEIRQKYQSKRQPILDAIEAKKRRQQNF

RAW264.7 [2] = experiment: Inhibition of MST1 in mouse RAW264.7 cells assessed as reduction in H2O2-stimulated MOB1 phosphorylation at T35 residue preincubated for 2 hrs followed by H2O2 addition for 30 mins by Western blotting analysis; assay type: cell-based; details: dose 0.1-10 µM, time 2.5 hrs, DDE = dose-dependent effect
RAW264.7 [3] = experiment: Inhibition of MST1 in mouse RAW264.7 cells assessed as reduction in H2O2-stimulated MST1/MST2 autophosphorylation at T183/T180 residues preincubated for 2 hrs followed by H2O2 addition for 30 mins by Western blotting analysis; assay type: cell-based; details: dose 0.1-10 µM, time 2.5 hrs, DDE = dose-dependent effect

Structure (SMILES) | IC50 [1] [nM] | inhibition (RAW264.7 [2]) | inhibition (RAW264.7 [3])
CN1C(=O)C(c2ccc(F)cc2)N(C)c2nc(Nc3ccc(S(N)(=O)=O)cc3)ncc21 (stereo not given) | 1770 |  | 
CN1C(=O)C(c2cccc(C(F)(F)F)c2)N(C)c2nc(Nc3ccc(S(N)(=O)=O)cc3)ncc21 (stereo not given) | 2710 |  | 
Cc1ccc(F)cc1C1C(=O)N(C)c2cnc(Nc3ccc(S(N)(=O)=O)cc3)nc2N1C (stereo not given) | 168 |  | 
CCc1ccccc1C1C(=O)N(C)c2cnc(Nc3ccc(S(N)(=O)=O)cc3)nc2N1C (stereo not given) | 51 |  | 
CN1C(=O)C(CC2CC2)N(C)c2nc(Nc3ccc(S(N)(=O)=O)cc3)ncc21 (stereo not given) | 211 |  | 
Cc1ccccc1C1C(=O)N(C)c2cnc(Nc3ccc(S(=O)(=O)NC4CC4)cc3)nc2N1C (stereo not given) | 53 |  | 
CC1C(=O)N(C)c2cnc(Nc3ccc(S(N)(=O)=O)cc3)nc2N1C (stereo not given) | 313 |  | 
CCC1C(=O)N(C)c2cnc(Nc3ccc(S(N)(=O)=O)cc3)nc2N1C (stereo not given) | 479 |  | 
CC(C)C1C(=O)N(C)c2cnc(Nc3ccc(S(N)(=O)=O)cc3)nc2N1C (stereo not given) | 254 |  | 
Cc1ccccc1C1C(=O)N(C)c2cnc(Nc3ccc(C4(C#N)CC4)cc3)nc2N1C (stereo not given) | 256 |  | 
Cc1ccccc1C1C(=O)N(C)c2cnc(Nc3ccc(S(=O)(=O)N(C)C)cc3)nc2N1C (stereo not given) | 219 |  | 
CN1C(=O)C(c2cccc(Cl)c2)N(C)c2nc(Nc3ccc(S(N)(=O)=O)cc3)ncc21 (stereo not given) | 989 |  | 

More lines, main results first:

IC50 [1] [nM] | Structure (SMILES) | inhibition (RAW264.7 [2]) | inhibition (RAW264.7 [3])
181 | CN1C(=O)C(c2c(F)cccc2F)N(C)c2nc(Nc3ccc(S(=O)(=O)N(C)C)cc3)ncc21 (stereo not given) |  | 
> 10000 | CN1C(=O)C(Cc2ccccc2)N(C)c2nc(Nc3ccc(S(N)(=O)=O)cc3)ncc21 (stereo not given) |  | 
119 | CCNS(=O)(=O)c1ccc(Nc2ncc3c(n2)N(C)C(c2ccccc2C)C(=O)N3C)cc1 (stereo not given) |  | 
104 | CNS(=O)(=O)c1ccc(Nc2ncc3c(n2)N(C)C(c2ccccc2C)C(=O)N3C)cc1 (stereo not given) |  | 
129 | CN1C(=O)C(c2ccccc2Cl)N(C)c2nc(Nc3ccc(S(N)(=O)=O)cc3)ncc21 (stereo not given) |  | 
104 | CN1C(=O)c2sccc2N(C)c2nc(Nc3ccc(S(N)(=O)=O)cc3)ncc21 | Dde | Dde
251 | COc1ccccc1C1C(=O)N(C)c2cnc(Nc3ccc(S(N)(=O)=O)cc3)nc2N1C (stereo not given) |  | 
419 | Cc1c(F)cccc1C1C(=O)N(C)c2cnc(Nc3ccc(S(N)(=O)=O)cc3)nc2N1C (stereo not given) |  | 
60 | Cc1ccccc1C1C(=O)N(C)c2cnc(Nc3ccc(S(=O)(=O)NCC4CC4)cc3)nc2N1C (stereo not given) |  | 
153 | Cc1ccccc1C1C(=O)N(C)c2cnc(Nc3ccc(C(C)(C)C#N)cc3)nc2N1C (stereo not given) |  | 
495 | CN1CC(=O)N(C)c2cnc(Nc3ccc(S(N)(=O)=O)cc3)nc21 |  | 
383 | CN1C(=O)C(c2ccccc2)N(C)c2nc(Nc3ccc(S(N)(=O)=O)cc3)ncc21 (stereo not given) |  | 
318 | CNS(=O)(=O)c1ccc(Nc2ncc3c(n2)N(C)C(c2c(F)cccc2F)C(=O)N3C)cc1 (stereo not given) |  | 
954 | COc1cccc(C2C(=O)N(C)c3cnc(Nc4ccc(S(N)(=O)=O)cc4)nc3N2C)c1 (stereo not given) |  | 
272 | CN1C(=O)C2(CCCCC2)N(C)c2nc(Nc3ccc(S(N)(=O)=O)cc3)ncc21 |  | 
57 | CN1C(=O)C(c2ccccc2Br)N(C)c2nc(Nc3ccc(S(N)(=O)=O)cc3)ncc21 (stereo not given) |  | 
